# From paper PMC8537445, “D-Peptide-Based Probe for CXCR4-Targeted Molecular Imaging and Radionuclide Therapy” (Pharmaceutics, 2021)
# Like-named read-outs stand apart in the source and are kept apart here. Positions of bridges follow the written chain, without caps; N, C: chain ends. Non-standard residues stand in square brackets, D forms with d. Residues, ends and D or L forms follow the SMILES beside them. Groups on a side chain read outwards from the residue. Chains are numbered I, II in the order given. *: point of attachment. DOTA = O=C(O)CN1CCN(CC(=O)O)CCN(CC(=O)*)CCN(CC(=O)O)CC1; 2Nal = N[C@@H](Cc1ccc2ccccc2c1)C(=O)O; dNMeOrn = CN[C@H](CCCN)C(=O)O; 4Amb = NCc1ccc(C(=O)O)cc1
# Columns and labels:
# [1] = Stability of the peptide in standard labeling conditions (LC-HRMS); format: physicochemical; conditions: aqueous buffer pH 4, 1 h at 95 °C
# Procedure: First, we successfully confirmed previously reported IC50-values of DV1, DV3 and DV1-k-(DV3) for hCXCR4 in an in vitro binding assay (Table 1) and we assessed the stability of the bivalent peptide DV1-k-(DV3) in standard labeling conditions (aqueous buffer pH 4, 1 h at 95 °C).
# [2] = biological target: T1, hCXCR4-expressing U87 cells (U87.hCXCR4) (Homo sapiens, UniProt P61073); assay: Binding and internalization assay on U87.hCXCR4 cells; format: cell-based; conditions: AMD3100 100 µM
# T1 construct: expressed in transfected cells; host or cells: U87 human glioblastoma cells, stably transfected
# T1 sequence (P61073 whole entry): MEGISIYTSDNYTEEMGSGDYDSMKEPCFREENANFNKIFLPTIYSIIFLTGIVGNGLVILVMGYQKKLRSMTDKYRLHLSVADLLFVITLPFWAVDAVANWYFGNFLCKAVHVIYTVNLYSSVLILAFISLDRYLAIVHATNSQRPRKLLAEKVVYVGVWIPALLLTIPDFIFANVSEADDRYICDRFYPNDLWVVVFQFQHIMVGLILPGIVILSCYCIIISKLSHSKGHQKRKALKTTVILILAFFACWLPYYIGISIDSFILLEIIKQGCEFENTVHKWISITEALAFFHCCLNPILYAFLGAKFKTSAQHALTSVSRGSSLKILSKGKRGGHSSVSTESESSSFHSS
# Procedure: Cellular uptake and internalization of [^18F]AlF-NOTA-DV1-k-(DV3), [^68Ga]Ga-DOTA-DV1-k-(DV3) and [^177Lu]Lu-DOTA-DV1-k-(DV3) (11, 17 and 7 nM respectively) into U87.hCXCR4 cells (2.5 × 10^5 cells) were investigated and compared with [^68Ga]PentixaFor (6 nM) as control. […] After incubation, the supernatant was removed and combined with 3 mL of ice-cold PBS used for rinsing the cells (unbound fraction). Subsequently, cells were incubated twice with 50 mM Glycine-HCl pH 2.8 for 5 min at room temperature, followed by one washing step with ice-cold PBS (membrane-bound fraction). Then, cells were lysed using 350 µL of reagent A100 (Chemometec, Allerod, Denmark). Reagent B (Chemometec, Allerod, Denmark) was used for rinsing the wells and to quench the lysing of the cells. Quantification of the amount of bound and internalized activity was performed using an automated gamma counter. The number of cells per well was counted using an automated counting device (NucleoCounter® NC-100™, Chemometec, Allerod, Denmark). Results were expressed as percentage of applied radioactivity bound to 2.5 × 10^5 cells.
# [3] = Ex vivo biodistribution in wild-type mice; conditions: mouse, total radioactivity, 75 min p.i., ex vivo gamma counting, mean ± SD
# Procedure: The in vivo pharmacokinetics of the selected radioligands were first evaluated in wild-type mice by performing a whole-body biodistribution study. […] Blood and major organs were collected in tared tubes and weighed. Quantification of radioactivity in blood, organs, and other body parts was performed using an automated gamma counter equipped with a 3-inch NaI(Tl) well crystal coupled to a multichannel analyzer, mounted in a sample changer (2480 Wizard^2, Perkin Elmer, Waltham, MA, USA). Counts were corrected for background radiation, physical decay and counter dead time. Results are presented as standardized uptake values (SUV; tissue activity concentration (MBq/g)/[injected dose (MBq)/body weight (g)]).
# [4] = in vivo; conditions: female, SCID (CB17.Cg-Prkdc<scid>Lyst<bg-J>/Crl), mouse, tumor, iv, total radioactivity
# Procedure: The subcutaneous tumor xenograft model was prepared using a published procedure [21]. Briefly, 1 × 10^6 U87.hCXCR4 cells mixed with Cultrex (1:1; Cultrex Basement Membrane Extract, R&D systems, Minneapolis, MN, USA) were implanted subcutaneously into the right shoulder of female 10-week-old SCID mice (CB17.Cg-PrkdcLyst<bg-J>/Crl; Charles River Laboratories, Sulzfeld, Germany). After an average of four weeks, the animals were used in biodistribution and PET/computed tomography (CT) imaging studies. Tumor volumes ranged from 150–574 mm^3 (measured by caliper, h × l × w), while the tumor mass-to-body weight ratio was 0.14–2.34%.
# Dynamic PET images were acquired for 60 min immediately after intravenous injection using a beta-cube PET scanner (Molecubes, Gent, Belgium). The mice were kept under gas anesthesia during the entire procedure (2.5% isoflurane in O2 at 1 L/min flow rate), with temperature and respiration monitored throughout. […]
# PET data were histogrammed into 14 frames (4 × 15 s, 4 × 1 min, 1 × 5 min, 5 × 10 min) and reconstructed into a 192 × 192 image matrix with 0.4 mm voxels using 30 iterations the native MLEM algorithm with corrections for randoms, scatter, attenuation and decay. […] Radiotracer uptake at 60 min, expressed as SUVmean, was the outcome measure.
# [5] = biological target: T2, murine CXCR4 (mCXCR4) (Mus musculus, UniProt P70658); assay: Competition binding with fluorescent murine CXCL12^AF647 on U87.mCXCR4 cells (flow cytometry)
# T2 construct: expressed in transfected cells; host or cells: U87 human glioblastoma cells, stably transfected
# T2 sequence (P70658 whole entry): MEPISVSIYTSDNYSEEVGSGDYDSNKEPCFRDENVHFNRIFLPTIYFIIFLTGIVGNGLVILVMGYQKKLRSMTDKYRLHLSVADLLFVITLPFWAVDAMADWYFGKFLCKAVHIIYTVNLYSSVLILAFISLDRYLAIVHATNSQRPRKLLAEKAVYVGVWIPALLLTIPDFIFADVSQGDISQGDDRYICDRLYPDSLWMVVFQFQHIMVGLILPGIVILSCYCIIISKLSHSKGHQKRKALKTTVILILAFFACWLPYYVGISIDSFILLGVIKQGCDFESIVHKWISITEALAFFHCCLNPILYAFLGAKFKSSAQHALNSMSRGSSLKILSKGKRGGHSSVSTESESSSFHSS
# Procedure: Competition binding studies (IC50) were performed as described using either Jurkat cells and human CXCL12^AF647 (Almac, UK) as fluorescent ligand or U87.mCXCR4 cells and murine CXCL12^AF647 (Almac, UK) as fluorescent ligand. […] IC50-values were calculated using nonlinear regression (four parameters) in GraphPad Prism 9 (Graph Pad Software, San Diego, CA, USA) based on three biological replicates for each concentration tested.
# [6] = Stability in human serum (radioHPLC); format: in vitro ADME; conditions: male, human serum (H4522 human male AB plasma), 5-fold dilution in human serum, 9 days at 37 °C, read-out: intact radioligand in human serum
# Procedure: Formulated solutions of [^18F]AlF-NOTA-DV1-k-(DV3) and [^68Ga]Ga-DOTA-DV1-k-(DV3) were evaluated by radioHPLC 5 h and 2 h after radiosynthesis, respectively. In addition, 5-fold dilutions in human serum (H4522 human male AB plasma, USA origin, sterile-filtered, Sigma Aldrich, Saint Louis, MO, USA) were incubated at 37 °C for 2 h and analyzed using radioHPLC.
# A formulated solution of [^177Lu]Lu-DOTA-DV1-k-(DV3) was evaluated by radioHPLC after 9 days of storage at 4 °C. A 5-fold dilution of [^177Lu]Lu-DOTA-DV1-k-(DV3) in human serum (H4522 human male AB plasma, USA origin, sterile-filtered, Sigma Aldrich, Saint Louis, MO, USA) was incubated at 37 °C for 9 days and analyzed by radioHPLC.
smiles,measurement,setting,value
CC(C)C[C@@H](N)C(=O)NCC(=O)N[C@H](C)C(=O)N[C@H](CO)C(=O)N[C@H](Cc1c[nH]c2ccccc12)C(=O)N[C@H](Cc1c[nH]cn1)C(=O)N[C@H](CCCNC(=N)N)C(=O)N1CCC[C@@H]1C(=O)N[C@H](CC(=O)O)C(=O)N[C@H](CCCCN)C(=O)NCCCC[C@@H](NC(=O)[C@H]1CCCN1C(=O)[C@@H](CC(C)C)NC(=O)[C@H]1CCCN1C(=O)[C@@H](CCCNC(=N)N)NC(=O)[C@@H](CCCCN)NC(=O)[C@@H](CCC(N)=O)NC(=O)[C@@H](Cc1ccc(O)cc1)NC(=O)CNC(=O)[C@@H](CC(C)C)NC(=O)[C@@H](CS)NC(=O)[C@@H](CS)NC(=O)[C@@H](CCCCN)NC(=O)[C@@H](CC(=O)O)NC(=O)[C@H]1CCCN1C(=O)[C@@H](CCCNC(=N)N)NC(=O)[C@@H](Cc1c[nH]cn1)NC(=O)[C@@H](Cc1c[nH]c2ccccc12)NC(=O)[C@@H](CO)NC(=O)[C@@H](C)NC(=O)CNC(=O)[C@H](N)CC(C)C)C(=O)O [DV1-k-(DV3)] (I: H-[dL]G[dA][dS][dW][dH][dR][dP][dD][dK][dC][dC][dL]G[dY][dQ][dK][dR][dP][dL][dP][dK]-OH / II: H-[dL]G[dA][dS][dW][dH][dR][dP][dD][dK]; amide I:22-II:C),stability in standard labeling conditions,[1],No degradation products were detected
"CN1C(=O)[C@@H](Cc2ccc(O)cc2)NC(=O)CNC(=O)[C@H](Cc2ccc3ccccc3c2)NC(=O)[C@H](CCCNC(=N)N)NC(=O)[C@H]1CCCNC(=O)c1ccc(CNC(=O)CN2CCN(CC(=O)O)CCN(CC(=O)O)CCN(CC(=O)O)CC2)cc1 [[^68Ga]PentixaFor, metal not drawn] (cyclo([dY][dNMeOrn]([4Amb-DOTA])R[2Nal]G))",blocking of cellular uptake by excess AMD3100,[2],completely blocked
same,SUV at 1.25 h,"[3]; blood, + AMD3100 5 mg/kg, n: PentixaFor 1, 18F 2, 68Ga 4, 177Lu 3, read-out: blood uptake",0.5 SUV
same,SUV at 1.25 h,"[3]; blood, tracer alone, n: PentixaFor 3, 18F 5, 68Ga 4, 177Lu 3, read-out: blood uptake",0.6 ± 0.1 SUV
same,SUV at 1.25 h,"[3]; bone (femur harboring bone marrow), tracer alone, n: PentixaFor 3, 18F 5, 68Ga 4, 177Lu 3, read-out: bone uptake (femur harboring bone marrow)",0.2 ± 0.01 SUV
same,SUV at 1.25 h,"[3]; brain, + AMD3100 5 mg/kg, n: PentixaFor 1, 18F 2, 68Ga 4, 177Lu 3, read-out: brain uptake",0.02 SUV
same,SUV at 1.25 h,"[3]; brain, tracer alone, n: PentixaFor 3, 18F 5, 68Ga 4, 177Lu 3, read-out: brain uptake",0.03 ± 0.01 SUV
same,SUV at 1.25 h,"[3]; heart, + AMD3100 5 mg/kg, n: PentixaFor 1, 18F 2, 68Ga 4, 177Lu 3, read-out: heart uptake",0.3 SUV
same,SUV at 1.25 h,"[3]; heart, tracer alone, n: PentixaFor 3, 18F 5, 68Ga 4, 177Lu 3, read-out: heart uptake",0.3 ± 0.02 SUV
same,SUV at 1.25 h,"[3]; kidneys, tracer alone, n: PentixaFor 3, 18F 5, 68Ga 4, 177Lu 3, read-out: kidneys uptake",1.9 ± 1.1 SUV
same,SUV at 1.25 h,"[3]; liver, + AMD3100 5 mg/kg, n: PentixaFor 1, 18F 2, 68Ga 4, 177Lu 3, read-out: liver uptake",0.5 SUV
same,SUV at 1.25 h,"[3]; liver, tracer alone, n: PentixaFor 3, 18F 5, 68Ga 4, 177Lu 3, read-out: liver uptake",0.6 ± 0.1 SUV
same,SUV at 1.25 h,"[3]; lungs, + AMD3100 5 mg/kg, n: PentixaFor 1, 18F 2, 68Ga 4, 177Lu 3, read-out: lungs uptake",0.7 SUV
same,SUV at 1.25 h,"[3]; lungs, tracer alone, n: PentixaFor 3, 18F 5, 68Ga 4, 177Lu 3, read-out: lungs uptake",0.7 ± 0.1 SUV
same,SUV at 1.25 h,"[3]; muscle, + AMD3100 5 mg/kg, n: PentixaFor 1, 18F 2, 68Ga 4, 177Lu 3, read-out: muscle uptake",0.2 SUV
same,SUV at 1.25 h,"[3]; muscle, tracer alone, n: PentixaFor 3, 18F 5, 68Ga 4, 177Lu 3, read-out: muscle uptake",0.2 ± 0.03 SUV
same,SUV at 1.25 h,"[3]; pancreas, + AMD3100 5 mg/kg, n: PentixaFor 1, 18F 2, 68Ga 4, 177Lu 3, read-out: pancreas uptake",0.3 SUV
same,SUV at 1.25 h,"[3]; pancreas, tracer alone, n: PentixaFor 3, 18F 5, 68Ga 4, 177Lu 3, read-out: pancreas uptake",0.3 ± 0.1 SUV
same,SUV at 1.25 h,"[3]; spleen, + AMD3100 5 mg/kg, n: PentixaFor 1, 18F 2, 68Ga 4, 177Lu 3, read-out: spleen uptake",0.3 SUV
same,SUV at 1.25 h,"[3]; spleen, tracer alone, n: PentixaFor 3, 18F 5, 68Ga 4, 177Lu 3, read-out: spleen uptake",0.3 ± 0.02 SUV
same,SUV at 1 h,[4],2.9 SUV
"CN1C(=O)[C@@H](Cc2ccc(O)cc2)NC(=O)CNC(=O)[C@H](Cc2ccc3ccccc3c2)NC(=O)[C@H](CCCNC(=N)N)NC(=O)[C@H]1CCCNC(=O)c1ccc(CNC(=O)CN2CCN(CC(=O)O)CCN(CC(=O)O)CCN(CC(=O)O)CC2)cc1 [[^natGa]PentixaFor, metal not drawn] (cyclo([dY][dNMeOrn]([4Amb-DOTA])R[2Nal]G))",IC50,"[5]; read-out: IC50 [nM] to mCXCR4, murine CXCL12^AF647 as fluorescent ligand, mean ± SD, n = 3",> 1000 nM
c1cc(CN2CCCNCCNCCCNCC2)ccc1CN1CCCNCCNCCCNCC1 [AMD3100],IC50,"[5]; murine CXCL12^AF647 as fluorescent ligand, mean ± SD, n = 3, read-out: IC50 [nM] to mCXCR4",123 ± 17 nM
"CC(C)C[C@@H](N)C(=O)NCC(=O)N[C@H](C)C(=O)N[C@H](CO)C(=O)N[C@H](Cc1c[nH]c2ccccc12)C(=O)N[C@H](Cc1c[nH]cn1)C(=O)N[C@H](CCCNC(=N)N)C(=O)N1CCC[C@@H]1C(=O)N[C@H](CC(=O)O)C(=O)N[C@H](CCCCNC(=O)CN1CCN(CC(=O)O)CCN(CC(=O)O)CCN(CC(=O)O)CC1)C(=O)NCCCC[C@@H](NC(=O)[C@H]1CCCN1C(=O)[C@@H](CC(C)C)NC(=O)[C@H]1CCCN1C(=O)[C@@H](CCCNC(=N)N)NC(=O)[C@@H](CCCCN)NC(=O)[C@@H](CCC(N)=O)NC(=O)[C@@H](Cc1ccc(O)cc1)NC(=O)CNC(=O)[C@@H](CC(C)C)NC(=O)[C@@H](CS)NC(=O)[C@@H](CS)NC(=O)[C@@H](CCCCN)NC(=O)[C@@H](CC(=O)O)NC(=O)[C@H]1CCCN1C(=O)[C@@H](CCCNC(=N)N)NC(=O)[C@@H](Cc1c[nH]cn1)NC(=O)[C@@H](Cc1c[nH]c2ccccc12)NC(=O)[C@@H](CO)NC(=O)[C@@H](C)NC(=O)CNC(=O)[C@H](N)CC(C)C)C(=O)O [[^177Lu]Lu-DOTA-DV1-k-(DV3), metal not drawn] (I: H-[dL]G[dA][dS][dW][dH][dR][dP][dD][dK][dC][dC][dL]G[dY][dQ][dK][dR][dP][dL][dP][dK]-OH / II: H-[dL]G[dA][dS][dW][dH][dR][dP][dD][dK](DOTA); amide I:22-II:C)",remaining at 216 h,[6],> 98%
